Data as given in patent US20060159631A1, “Compositions and methods for preventing dental stain” (SMITHKLINE BEECHAM CORPORATION, priority 2003, published 2006).

Assay: Coffee stain challenge on saliva pellicle-treated HAP discs, rated by visual inspection
Conditions: subjective index of 1 to 10 (1 representing greatest stain), coffee 24 hours, None = 2.0
Description: In a series of experiments, HAP discs were first treated with saliva to generate an artificial pellicle. […] Following a second rinse, the active-treated discs were immersed in a concentrated solution of coffee for a period of 24 hours in order to simulate a dietary stain challenge. After rinsing to remove excess coffee solution, the discs were dried and rated for stain by visual inspection. Using a subjective index of 1 to 10 (1 representing greatest stain), stain intensity is tabluated below.

Compound	Stain Intensity (10% (w/w) active)	Stain Intensity (2% (w/w) active)	Stain Intensity (5% (w/w) active)
O=P(O)(O)OP(=O)(O)OP(=O)(O)O [STP]	5.5	–	–
pegulated lauryl phosphate ether [DLP-10]	–	3.5	4.0
